Experiments:
Type in all cases: cell-based, human
[1] = tested on: iPSC-derived cardiomyocytes; test: Protein expression of cardiac markers in iPSC-CMs, 3D suspension culture, FOXO/FOXM1 modulators; settings: for protein expression of TNNI3 / protein expression of TNNT2: 3D suspension culture
Source text: (§1) FOXO activation with LOM612 enhances protein (FIG. 19B) but not RNA expression of Kir2.1 (FIG. 19A). FOXO activation increases the upstroke velocity (spike slope) (FIG. 19C).
(§2) Cell lines used included UCSD142i-86-1 iPSC line (WiCell), Gibco human episomal iPSC line (Thermo), and DiPS 1016SevA iPSC line (Harvard. Cardiomyocytes are obtained utilizing a differential protocol adapted from Lian et al. Nat Protoc 2013: 8 (1): 162-75 (FIG. 16A). The differentiation protocol may be modified utilizing modulators of FOXO and FOXM1 (FIG. 16B). Cardiomyocytes may be characterized as being contractility mature, metabolically mature, or electrophysiologically mature (FIG. 16C).

[2] = tested on: iPSC-derived cardiomyocytes; test: Contractile and electrophysiological properties by multielectrode array analysis, FOXO/FOXM1 modulators; settings: for contractility: iPSC-derived cardiomyocytes
Source text: as §2
The contractile properties of cardiomyocytes improved with FOXO activation. FOXO activation with LOM612 or FOXM1 inhibition with RCM-1 increases protein expression of cardiac troponin T (TNNT2) and increases mean beat amplitude by multielectrode array analysis (FIG. 17). […] AS1842856 may be applied in an amount of about 0.2 to 1 μM.
(§3) FOXO activation improved electrophysiological properties of PSC-CMs. FOXO activation with LOM612 enhances protein, but not RNA expression of Kir2.1 (FIGS. 19A-19B). FOXO activation increases the upstroke velocity (spike slope) (FIG. 19C).

PSC-CMs [3] = test: Oxygen consumption rate and respiratory reserve capacity of PSC-CMs
Source text: FOXO activation with LOM612 (FIG. 18A) or FOXM1 inhibition with RCM-1 (FIG. 18B) increases maximum oxygen consumption rate (OCR) and respiratory reserve capacity, while inhibition of FOXO with AS1842856 (FIG. 18C) inhibits maximum OCR and respiratory reserve capacity.
In some embodiments, the cardiomyocytes are metabolically mature cardiomyocytes. In some aspects, a cardiomyocyte has increased metabolic activity as compared to an immature cardiomyocyte. In some embodiments, a cardiomyocyte has increased oxygen consumption and/or extracellular acidification rate as compared to immature cardiomyocytes. In some embodiments, a cardiomyocyte has increased respiratory reserve as compared to immature cardiomyocytes. Metabolic maturity may be quantified using a Seahorse mito stress metabolic assay (Agilent). The assay may be used to measure oxygen consumption rate and extracellular acidification rate in response to one or more compounds (e.g., small molecule compounds) that affect mitochondrial function.
FOXO activation with LOM612 or FOXM1 inhibition with RCM-1 increases maximum oxygen consumption rate (OCR) and respiratory reserve capacity, while inhibition of FOXO with AS1842856 inhibits maximum OCR and respiratory reserve capacity (FIG. 18).

PSC-CMs [4] = test: RNA expression of cardiac markers in PSC-CMs
Source text: as §1, §3

iPSC-CMs [5] = test: Flow cytometry of marker expression in iPSC-CMs differentiated and treated in 3D culture
Source text: Nutlin-3a increases the percentage (FIG. 12A) and mean fluorescence intensity (MFI) (FIG. 12B) of TNNT2 in iPSC-CMs as well as the percentage (FIG. 12C) and MFI (FIG. 12D) of Kir2.1 in TNNT2+iPSC-CMs by flow cytometry. Nutlin-3a increases the percentage (FIG. 12E) and MFI (FIG. 12F) of p53 in TNNT2+iPSC-CMs. Nutlin-3a increases mean beat amplitude (FIG. 12G) and mean spike amplitude (FIG. 12H) of iPSC-CMs as quantified using a multielectrode array. *p<0.05. **p<0.01. ***p<0.001. ****p<0.0001 by one-way ANOVA. iPSC-CMs differentiated and treated in 3D. […]
(§4) Kir2.1 is the ion channel largely responsible for maintaining the resting membrane potential via the inward rectifier current (IK1); at lower levels, abnormal membrane depolarization can increase the risk of ventricular arrhythmias (8, 9). Nutlin-3a but not Torin1 treatment of iPSC-CMs increased expression of TNNT2 and Kir2.1 (FIG. 12A-12D). Also, Nutlin-3a but not Torin1 increased expression of p53, which may support induction of a quiescent state (FIG. 12E-12F).

iPSC-CMs [6] = test: Multielectrode array (Axion Maestro Edge) of iPSC-CMs in 3D culture; settings: iPSC-CMs differentiated and treated in 3D
Source text: Nutlin-3a increases the percentage (FIG. 12A) and mean fluorescence intensity (MFI) (FIG. 12B) of TNNT2 in iPSC-CMs as well as the percentage (FIG. 12C) and MFI (FIG. 12D) of Kir2.1 in TNNT2+iPSC-CMs by flow cytometry. Nutlin-3a increases the percentage (FIG. 12E) and MFI (FIG. 12F) of p53 in TNNT2+iPSC-CMs. Nutlin-3a increases mean beat amplitude (FIG. 12G) and mean spike amplitude (FIG. 12H) of iPSC-CMs as quantified using a multielectrode array. *p<0.05. **p<0.01. ***p<0.001. ****p<0.0001 by one-way ANOVA. iPSC-CMs differentiated and treated in 3D.
as §4

iPSC-CMs [7] = test: Resting membrane potential of iPSC-CMs in 2D culture; settings: Torin1 200 nM, compared to control (DMSO)
Source text: Pluripotent stem cell-derived cardiomyocytes (PSC-CMs) offer a regenerative approach to treat patients with systolic heart failure. However, delivery of immature PSC-CMs may increase the risk of ventricular arrhythmias, which is a barrier to clinical translation (1, 2). It was recently identified that inhibition of the mechanistic target of rapamycin (mTOR) pathway improves maturation of cardiomyocytes derived from induced pluripotent stem cells (iPSCs) in two-dimensional (2D) culture (3). […] This could greatly simplify the manufacturing process compared to other protocols that take 2 months to produce mature PSC-CMs with similar resting membrane potentials (4).

`CCn1cc(C(=O)O)c(=O)c2c(N)c(F)c(NC3CCCCC3)cc21` [AS1842856] was tested, and the “protein expression of TNNI3” value [1] was “decreases”, the “protein expression of TNNT2” value [1] was “decreases” and the beating of spheroids ([2]; 3D suspension culture) was “non-beating spheroids”. For the same compound, the contractility [2] was “poorly contractile cells”, the “maximum oxygen consumption rate (OCR)” value (PSC-CMs [3]) was “inhibits” and the respiratory reserve capacity (PSC-CMs [3]) was “inhibits”. The “cardiac marker RNA levels” value (PSC-CMs [4]) was “reduce”.
With `CN(C)c1nsc2c1C(=O)c1ccccc1C2=O` [LOM612] the “protein expression of TNNI3” value [1] was “increases”, the “protein expression of TNNT2” value [1] was “increases” and the “protein expression of Kir2.1” value ([1]; PSC-CMs) was “enhances”. For the same compound, the “mean beat amplitude by multielectrode array analysis” value ([2]; 3D suspension culture) was “increases”, the “upstroke velocity (spike slope)” value ([2]; FOXO activation, PSC-CMs) was “increases” and the contractility [2] was “enhances”. The “maximum oxygen consumption rate (OCR)” value (PSC-CMs [3]) was “increases” and the respiratory reserve capacity (PSC-CMs [3]) was “increases”.
For `COc1ccc(C2=N[C@@H](c3ccc(Cl)cc3)[C@@H](c3ccc(Cl)cc3)N2C(=O)N2CCNC(=O)C2)c(OC(C)C)c1` [Nutlin-3a, nutlin-3a], the “mean fluorescence intensity (MFI) of Kir2.1” value (iPSC-CMs [5]; flow cytometry) was “increases”, the “mean fluorescence intensity (MFI) of TNNT2” value (iPSC-CMs [5]; flow cytometry) was “increases” and the “mean fluorescence intensity (MFI) of p53” value (iPSC-CMs [5]; flow cytometry) was “increases”. The “percentage of Kir2.1 in TNNT2+ iPSC-CMs” value (iPSC-CMs [5]; flow cytometry) was “increases”, the “percentage of TNNT2 in iPSC-CMs (% TNNT2+)” value (iPSC-CMs [5]; flow cytometry) was “increases” and the “percentage of p53 in TNNT2+ iPSC-CMs” value (iPSC-CMs [5]; flow cytometry) was “increases”. The “expression of Kir2.1” value (iPSC-CMs [5]; iPSC-CMs) was “increased”, the “expression of TNNT2” value (iPSC-CMs [5]; iPSC-CMs) was “increased” and the “expression of p53” value (iPSC-CMs [5]; iPSC-CMs) was “increased”. The mean beat amplitude (iPSC-CMs [6]) was “increases” and the mean spike amplitude (iPSC-CMs [6]) was “increases”.
`O=c1c(O)c(-c2ccc(O)c(O)c2)oc2cc(O)cc(O)c12` [Quercetin, quercetin] was tested, and the “mean fluorescence intensity (MFI) of Kir2.1” value (iPSC-CMs [5]; flow cytometry) was “increases”, the “mean fluorescence intensity (MFI) of p53” value (iPSC-CMs [5]; flow cytometry) was “increases” and the “percentage of Kir2.1 in TNNT2+ iPSC-CMs” value (iPSC-CMs [5]; flow cytometry) was “increases”. The “percentage of p53 in TNNT2+ iPSC-CMs” value (iPSC-CMs [5]; flow cytometry) was “increases”, the “expression of Kir2.1” value (iPSC-CMs [5]; iPSC-CMs) was “increased” and the “expression of p53” value (iPSC-CMs [5]; iPSC-CMs) was “increased”.
`N#Cc1c(-c2cccs2)cc(-c2cccs2)nc1SCC(=O)c1cccs1` [RCM1] was tested, and the “purity of iPSC-CMs” value (iPSC-CMs [5]) was “increased”, the “mean fluorescence intensity (MFI) of Kir2.1” value (iPSC-CMs [5]; flow cytometry) was “increases” and the “percentage of Kir2.1 in TNNT2+ iPSC-CMs” value (iPSC-CMs [5]; flow cytometry) was “increases”. The “percentage of TNNT2 in iPSC-CMs (% TNNT2+)” value (iPSC-CMs [5]; flow cytometry) was “increases”, the “expression of Kir2.1” value (iPSC-CMs [5]; iPSC-CMs) was “increased” and the “protein expression of TNNI3” value [1] was “increases”. The “protein expression of TNNT2” value [1] was “increases”, the “mean beat amplitude by multielectrode array analysis” value ([2]; 3D suspension culture) was “increases” and the “maximum oxygen consumption rate (OCR)” value (PSC-CMs [3]) was “increases”. For the same compound, the respiratory reserve capacity (PSC-CMs [3]) was “increases”.
`CCC(=O)N1CCN(c2ccc(-n3c(=O)ccc4cnc5ccc(-c6cnc7ccccc7c6)cc5c43)cc2C(F)(F)F)CC1` [Torin1] was tested, and the resting membrane potential (iPSC-CMs [7]) was “decreased”.

Reference: patent US20250297224A1, “CARDIOMYOCYTES AND COMPOSITIONS AND METHODS FOR PRODUCING THE SAME” (President and Fellows of Harvard College, priority 2021, published 2025)
